What all share (assay type): functional
Assay [1] relates to Aspergillus niger. In words: Ratio of MFC to MIC for Aspergillus niger MTCC 8189.
Assay [2] concerns Candida albicans. Briefly: Ratio of MFC to MIC for Candida albicans MTCC 227.
In assay [3] the test system is Escherichia coli. Briefly: Ratio of MBC to MIC for Escherichia coli MTCC 1652.
Assay [4] has as its system Bacillus subtilis. Briefly: Ratio of MBC to MIC for Bacillus subtilis MTCC 2063.
Assay [5] deals with Staphylococcus aureus. Briefly: Ratio of MBC to MIC for Staphylococcus aureus MTCC 2901.
The test system of assay [6] is Aspergillus niger. Briefly: Fungicidal activity against Aspergillus niger MTCC 8189.
Assay [7] concerns Candida albicans. In words: Fungicidal activity against Candida albicans MTCC 227.
Assay [8] concerns Escherichia coli. Briefly: Bactericidal activity against Escherichia coli MTCC 1652.
Assay [9] has as its system Bacillus subtilis. In words: Bactericidal activity against Bacillus subtilis MTCC 2063.
Assay [10] concerns Staphylococcus aureus. In words: Bactericidal activity against Staphylococcus aureus MTCC 2901.
Assay [11] concerns Candida albicans. Briefly: Fungistatic activity against Candida albicans MTCC 227 after 48 hr by tube dilution method.
Assay [12] relates to Aspergillus niger. Briefly: Fungistatic activity against Aspergillus niger MTCC 8189 after 7 days by tube dilution method.
Assay [13] deals with Escherichia coli. In words: Bacteriostatic activity against Escherichia coli MTCC 1652 after 24 hr by tube dilution method.
In assay [14] the test system is Staphylococcus aureus. Briefly: Bacteriostatic activity against Staphylococcus aureus MTCC 2901 after 24 hr by tube dilution method.
Assay [15] has as its system Bacillus subtilis. In words: Bacteriostatic activity against Bacillus subtilis MTCC 2063 after 24 hr by tube dilution method.

Each structure is given as a SMILES string. In brackets after ≈: the same amount, converted by molar mass.

As a reminder, the MFC is the smallest concentration meeting the test's criterion for killing the fungus. The term MBC denotes the lowest tested concentration that kills the bacteria rather than only halting them. Turning to `O=C(/C=C/c1ccccc1)N/N=C/c1cccc(O)c1`, the Ratio in the assay with Aspergillus niger [1], in the assay on Candida albicans [2], in the assay with Escherichia coli [3], with Bacillus subtilis [4] and with Staphylococcus aureus [5] was 3 throughout. Besides, the MFC in the assay on Aspergillus niger [6] and with Candida albicans [7] was 93 µM (≈ 24.8 µg/mL) each time. The MBC in the assay on Escherichia coli [8], in the assay with Bacillus subtilis [9] and against Staphylococcus aureus [10] was 46 µM (≈ 12.2 µg/mL) in each case. For the same compound, the “-logMIC” value in the assay on Candida albicans [11] was determined as 1.93; in the assay with Aspergillus niger [12], 1.93; in the assay on Escherichia coli [13], 1.32; in the assay on Staphylococcus aureus [14], 1.7; with Bacillus subtilis [15] it was 1.93.

With `COc1ccc(C(=O)N/N=C/c2cccc(O)c2)cc1OC`, the Ratio in the assay on Aspergillus niger [1], with Candida albicans [2], with Escherichia coli [3], in the assay with Bacillus subtilis [4] and in the assay with Staphylococcus aureus [5] was 3 in each case. The MFC came out at 41 µM (≈ 12.3 µg/mL) against Aspergillus niger [6] and 83 µM (≈ 24.9 µg/mL) with Candida albicans [7]. Moreover, the MBC against Escherichia coli [8] was over 166 µM; with Bacillus subtilis [9] it was over 166 µM; in the assay on Staphylococcus aureus [10], 83 µM (≈ 24.9 µg/mL). In addition, the “-logMIC” value in the assay on Candida albicans [11] was determined as 1.98; with Aspergillus niger [12], 1.98; in the assay with Escherichia coli [13] it was 1.38; with Staphylococcus aureus [14], 1.98; in the assay on Bacillus subtilis [15] it was 1.38.

For the compound `O=C(N/N=C/c1cccc(O)c1)c1cc([N+](=O)[O-])cc([N+](=O)[O-])c1`, the Ratio with Aspergillus niger [1], in the assay with Candida albicans [2], in the assay with Escherichia coli [3], in the assay on Bacillus subtilis [4] and in the assay with Staphylococcus aureus [5] was 3 each time. In addition, the results for the MFC against Aspergillus niger [6] and against Candida albicans [7] were 37 µM (≈ 12.2 µg/mL) and over 151 µM, respectively. The MBC against Escherichia coli [8], against Bacillus subtilis [9] and against Staphylococcus aureus [10] was over 151 µM throughout. In addition, the “-logMIC” value in the assay on Candida albicans [11] is 1.42; in the assay on Aspergillus niger [12], 2.02; in the assay on Escherichia coli [13], 1.42; in the assay on Staphylococcus aureus [14], 1.12; in the assay with Bacillus subtilis [15], 1.42.

Consider `CCCCCCCCCCCC(=O)N/N=C/c1ccc(SC)cc1`, for which the Ratio in the assay with Aspergillus niger [1], in the assay on Candida albicans [2], with Escherichia coli [3], in the assay on Bacillus subtilis [4] and with Staphylococcus aureus [5] was 3 in each case. The values for the MFC with Aspergillus niger [6] and in the assay on Candida albicans [7] were 71 µM (≈ 24.7 µg/mL) and over 142 µM, respectively. The MBC with Escherichia coli [8], against Bacillus subtilis [9] and against Staphylococcus aureus [10] was over 142 µM throughout. Moreover, the “-logMIC” value is listed as 1.66 with Candida albicans [11]; 1.25 with Aspergillus niger [12]; 1.3 in the assay on Escherichia coli [13]; 1.3 with Staphylococcus aureus [14]; 1.45 in the assay on Bacillus subtilis [15].

Consider `CCCCCCCCCCCCCC(=O)N/N=C/c1ccc(SC)cc1`, for which the Ratio with Aspergillus niger [1], with Candida albicans [2], in the assay on Escherichia coli [3], in the assay with Bacillus subtilis [4] and in the assay with Staphylococcus aureus [5] was 3 each time. Besides, the MFC in the assay with Aspergillus niger [6] and in the assay on Candida albicans [7] was over 132 µM each time. The MBC with Escherichia coli [8] was over 132 µM; in the assay on Bacillus subtilis [9], 33 µM (≈ 12.4 µg/mL); in the assay on Staphylococcus aureus [10], over 132 µM. Besides, the “-logMIC” value in the assay on Candida albicans [11] was found to be 0.58; in the assay with Aspergillus niger [12], 1.7; in the assay with Escherichia coli [13] it was 1.48; in the assay with Staphylococcus aureus [14], 0.58; with Bacillus subtilis [15] it was 2.08.

Turning to `CCCCCCCCCCCCCCCC(=O)N/N=C/c1ccc(SC)cc1`, the Ratio in the assay with Aspergillus niger [1], with Candida albicans [2], in the assay with Escherichia coli [3], in the assay on Bacillus subtilis [4] and in the assay with Staphylococcus aureus [5] was 3 throughout. Moreover, the MFC against Aspergillus niger [6] and against Candida albicans [7] was over 122 µM in each case. Further, the results for the MBC against Escherichia coli [8], in the assay on Bacillus subtilis [9] and with Staphylococcus aureus [10] were 61 µM (≈ 24.7 µg/mL), 61 µM (≈ 24.7 µg/mL) and over 122 µM, respectively. The “-logMIC” value with Candida albicans [11] turned out to be 0.61; in the assay on Aspergillus niger [12], 0.61; in the assay with Escherichia coli [13], 1.81; with Staphylococcus aureus [14], 1.21; in the assay with Bacillus subtilis [15] it was 2.11.

`COc1ccc(C(=O)N/N=C/c2ccc(SC)cc2)cc1OC`: the Ratio in the assay with Aspergillus niger [1], with Candida albicans [2], in the assay on Escherichia coli [3], in the assay on Bacillus subtilis [4] and with Staphylococcus aureus [5] was 3 each time. Also, the MFC in the assay on Aspergillus niger [6] and in the assay on Candida albicans [7] was over 151 µM throughout. Further, the values for the MBC against Escherichia coli [8], with Bacillus subtilis [9] and with Staphylococcus aureus [10] were over 151 µM, over 151 µM and 37 µM (≈ 12.2 µg/mL), respectively. The “-logMIC” value in the assay on Candida albicans [11] stood at 1.42; in the assay with Aspergillus niger [12] it was 1.59; with Escherichia coli [13] it was 1.7; in the assay with Staphylococcus aureus [14], 1.72; with Bacillus subtilis [15] it was 1.42.

For `CSc1ccc(/C=N/NC(=O)c2cc([N+](=O)[O-])cc([N+](=O)[O-])c2)cc1`, the Ratio in the assay on Aspergillus niger [1], in the assay with Candida albicans [2], in the assay on Escherichia coli [3], in the assay on Bacillus subtilis [4] and in the assay on Staphylococcus aureus [5] was 3 in each case. Besides, the MFC against Aspergillus niger [6] is 69 µM (≈ 24.9 µg/mL); against Candida albicans [7], over 138 µM. Moreover, the MBC in the assay on Escherichia coli [8] amounted to 8 µM (≈ 2.88 µg/mL); against Bacillus subtilis [9], 69 µM (≈ 24.9 µg/mL); in the assay with Staphylococcus aureus [10], 69 µM (≈ 24.9 µg/mL). Further, the “-logMIC” value with Candida albicans [11] is given as 0.86; in the assay on Aspergillus niger [12], 2.06; in the assay with Escherichia coli [13], 2.06; in the assay with Staphylococcus aureus [14], 1.46; in the assay with Bacillus subtilis [15], 2.06.

For the compound `CCCCCCCCCCCC(=O)N/N=C/c1cccc(O)c1`, the Ratio in the assay with Aspergillus niger [1], with Candida albicans [2], in the assay with Escherichia coli [3], in the assay with Bacillus subtilis [4] and in the assay with Staphylococcus aureus [5] was 3 throughout. Besides, the minimal fungicidal concentration (MFC) turned out to be 78 µM (≈ 24.8 µg/mL) in the assay with Aspergillus niger [6] and 157 µM (≈ 50 µg/mL) in the assay on Candida albicans [7]. In addition, the results for the MBC against Escherichia coli [8], in the assay on Bacillus subtilis [9] and against Staphylococcus aureus [10] were 157 µM (≈ 50 µg/mL), 157 µM (≈ 50 µg/mL) and over 157 µM, respectively. Besides, the “-logMIC” value worked out at 1.1 in the assay on Candida albicans [11]; 1.71 in the assay with Aspergillus niger [12]; 0.98 with Escherichia coli [13]; 0.98 with Staphylococcus aureus [14]; 0.8 with Bacillus subtilis [15].

Turning to `CCCCCCCCCCCCCC(=O)N/N=C/c1cccc(O)c1`, the Ratio in the assay with Aspergillus niger [1], with Candida albicans [2], with Escherichia coli [3], with Bacillus subtilis [4] and in the assay on Staphylococcus aureus [5] was 3 in each case. Moreover, the minimal fungicidal concentration (MFC) with Aspergillus niger [6] and in the assay with Candida albicans [7] was over 144 µM each time. Further, the values for the MBC with Escherichia coli [8], against Bacillus subtilis [9] and against Staphylococcus aureus [10] were over 144 µM, 144 µM (≈ 49.9 µg/mL) and over 144 µM, respectively. Moreover, the “-logMIC” value in the assay on Candida albicans [11] amounted to 0.54; with Aspergillus niger [12], 1.2; in the assay on Escherichia coli [13] it was 0.94; in the assay with Staphylococcus aureus [14], 0.94; in the assay with Bacillus subtilis [15], 2.04.

For the compound `CCCCCCCCCCCCCCCC(=O)N/N=C/c1cccc(O)c1`, the Ratio in the assay with Aspergillus niger [1], in the assay on Candida albicans [2], in the assay on Escherichia coli [3], in the assay with Bacillus subtilis [4] and with Staphylococcus aureus [5] was 3 in each case. The MFC with Aspergillus niger [6] and in the assay with Candida albicans [7] was over 133 µM each time. Moreover, the MBC against Escherichia coli [8] was over 133 µM; against Bacillus subtilis [9] it was 133 µM (≈ 49.8 µg/mL); with Staphylococcus aureus [10], over 133 µM. Also, the “-logMIC” value in the assay on Candida albicans [11] was determined as 0.57; in the assay with Aspergillus niger [12], 1.2; in the assay on Escherichia coli [13] it was 1.13; with Staphylococcus aureus [14], 0.99; in the assay on Bacillus subtilis [15] it was 1.78.

For `CCCCCCCCCCCCCCCCCC(=O)N/N=C/c1cccc(O)c1`, the Ratio in the assay on Aspergillus niger [1], with Candida albicans [2], in the assay with Escherichia coli [3], in the assay on Bacillus subtilis [4] and with Staphylococcus aureus [5] was 3 throughout. In addition, the MFC in the assay with Aspergillus niger [6] and with Candida albicans [7] was over 124 µM in each case. Further, the results for the MBC against Escherichia coli [8], with Bacillus subtilis [9] and against Staphylococcus aureus [10] were over 124 µM, 124 µM (≈ 49.9 µg/mL) and over 124 µM, respectively. Moreover, the “-logMIC” value in the assay with Candida albicans [11] was 0.6; with Aspergillus niger [12], 1.51; in the assay on Escherichia coli [13], 1.3; in the assay on Staphylococcus aureus [14], 1.1; in the assay on Bacillus subtilis [15], 1.51.

Consider `C/C=C/C=C/C(=O)N/N=C/c1cccc(O)c1`, for which the Ratio with Aspergillus niger [1], with Candida albicans [2], in the assay with Escherichia coli [3], in the assay with Bacillus subtilis [4] and in the assay with Staphylococcus aureus [5] was 3 each time. The MFC against Aspergillus niger [6] and with Candida albicans [7] was 217 µM (≈ 50 µg/mL) throughout. Further, the MBC with Escherichia coli [8] is over 217 µM; in the assay with Bacillus subtilis [9] it was 217 µM (≈ 50 µg/mL); with Staphylococcus aureus [10], over 217 µM. In addition, the “-logMIC” value was determined as 1.41 with Candida albicans [11]; 1.27 in the assay on Aspergillus niger [12]; 1.27 in the assay on Escherichia coli [13]; 0.96 with Staphylococcus aureus [14]; 1.27 in the assay on Bacillus subtilis [15].

Consider `O=C(O)c1cn(C2CC2)c2cc(N3CCNCC3)c(F)cc2c1=O` [CIPROFLOXACIN], for which the MBC against Escherichia coli [8], in the assay with Bacillus subtilis [9] and in the assay with Staphylococcus aureus [10] was 19 µM (≈ 6.3 µg/mL) in each case. In addition, the “-logMIC” value in the assay with Escherichia coli [13], with Staphylococcus aureus [14] and in the assay with Bacillus subtilis [15] was 2.61 each time.

In the case of `OC(Cn1cncn1)(Cn1cncn1)c1ccc(F)cc1F` [FLUCONAZOLE], the MFC in the assay on Aspergillus niger [6] and against Candida albicans [7] was 40 µM (≈ 12.3 µg/mL) in each case. Also, the “-logMIC” value in the assay on Candida albicans [11] and in the assay on Aspergillus niger [12] was 2.64 throughout.

Source of the values: ChEMBL document CHEMBL3046917, “Antimicrobial evaluation of 4-methylsulfanyl benzylidene/3-hydroxy benzylidene hydrazides and QSAR studies” (2012).
